Test results as given in patent publication US8603947B2, “(4-haloalkyl-3-thiobenzoyl)cyclohexanediones and use thereof as herbicides” (Bayer Cropscience AG, priority 2010, dated 2013).

Key:
Type in all cases: in vivo
[1] = tested on: Amaranthus retroflexus (AMARE); assay: Post-emergence herbicidal action against weed plants; conditions: dose 80 g a.c./ha, scored after 3 to 4 weeks, Comparison Table 8
Experimental: (§1) [table] 2. Post-emergence Herbicidal Action Against Weed Plants Seeds of monocotyledonous and dicotyledonous weed plants are set out in cardboard pots in sandy loam soil, covered with soil, and cultivated under glass under good growth conditions. Two to three weeks after sowing, the trial plants are treated at the three-leaf stage. The compounds according to the invention, formulated as wettable powders or as emulsifiable concentrates, are sprayed onto the surface of the green parts of the plants, at a water application rate of 600 to 800 l/ha (converted). After the trial plants have stood for 3 to 4 weeks under optimum growth conditions under glass, the action of the compounds according to the invention is scored in comparison to compounds disclosed in the prior art.

[2] = tested on: Pharbitis purpureum (PHBPU); assay: as above; conditions: scored after 3 to 4 weeks
Experimental: as §1

[3] = tested on: Alopecurus myosuroides (ALOMY); assay: as above; conditions: scored after 3 to 4 weeks
Experimental: as §1

[4] = tested on: Viola tricolor (VIOTR); assay: Pre-emergence herbicidal action against weed plants; conditions: scored after 3 to 4 weeks
Excerpt: (§2) 1. Pre-emergence Herbicidal Action Against Weed Plants Seeds or rhizome sections of mono- and dicotyledonous weed plants are set out in pots of 9 to 13 cm in diameter, in sandy loam soil, and are covered with soil. The herbicides, formulated as emulsifiable concentrates or dusts, are applied to the surface of the covering earth in the form of aqueous dispersions or suspensions or emulsions, at a water application rate of 300 to 800 l/ha (converted). The pots are then maintained under glass under optimum conditions for the further cultivation of the plants. After 3 to 4 weeks under optimum growth conditions under glass, the trial plants are scored for the effect of the compounds according to the invention in comparison to compounds disclosed in the prior art. […] [table]

[5] = tested on: Pharbitis purpureum (PHBPU); assay: as above; conditions: scored after 3 to 4 weeks
Excerpt: as §2

[6] = tested on: Setaria viridis (SETVI); assay: as above; conditions: dose 80 g a.c./ha, scored after 3 to 4 weeks, Comparison Table 5
Excerpt: as §2

[7] = tested on: Matricaria inodora (MATIN); assay: Post-emergence herbicidal action against weed plants; conditions: dose 80 g a.c./ha, scored after 3 to 4 weeks
Experimental: as §1

[8] = tested on: Echinochloa crus galli (ECHCG); assay: as above; conditions: dose 80 g a.c./ha, scored after 3 to 4 weeks
Experimental: as §1

[9] = tested on: Avena fatua (AVEFA); assay: Pre-emergence herbicidal action against weed plants; conditions: dose 320 g a.c./ha, scored after 3 to 4 weeks, Comparison Table 4
Excerpt: as §2

[10] = tested on: Matricaria inodora (MATIN); assay: as above; conditions: dose 320 g a.c./ha, scored after 3 to 4 weeks, Comparison Table 4
Excerpt: as §2

[11] = tested on: Viola tricolor (VIOTR); assay: Post-emergence herbicidal action against weed plants; conditions: dose 80 g a.c./ha, scored after 3 to 4 weeks, Comparison Table 11
Experimental: as §1

[12] = tested on: Setaria viridis (SETVI); assay: as above; conditions: dose 80 g a.c./ha, scored after 3 to 4 weeks, Comparison Table 11
Experimental: as §1

[13] = dose 80 g a.c./ha, Comparison Table 8
[14] = dose 80 g a.c./ha, Comparison Table 6
[15] = dose 320 g a.c./ha, Comparison Table 3
[16] = dose 80 g a.c./ha, Comparison Table 5
[17] = dose 80 g a.c./ha, Comparison Table 10
[18] = dose 80 g a.i./ha, Comparison Table 7
[19] = dose 80 g a.c./ha, Comparison Table 9
[20] = dose 80 g a.c./ha, Comparison Table 2
[21] = dose 320 g a.c./ha, Comparison Table 4
[22] = dose 80 g a.c./ha, Comparison Table 11
[23] = dose 320 g a.c./ha, Comparison Table 1

Cc1c(C(=O)C2C(=O)C3CCC(C3)C2=O)ccc(C(F)(F)C(F)(F)F)c1[S+](C)[O-] (stereo not drawn) [drawing 27]
Herbicidal action against AMARE [1]: 100% | Herbicidal action against PHBPU [2, 13]: 100% | Herbicidal action against ALOMY [3, 13]: 90%

Cc1c(C(=O)C2C(=O)C3CCC(C3)C2=O)ccc(C(F)(F)C(F)(F)F)c1[S+](C)[O-] (stereo not drawn) [drawing 23]
Herbicidal action against PHBPU [2, 14]: 100% | Herbicidal action against ALOMY [3, 14]: 90%

Cc1c(C(=O)C2C(=O)C3CCC(C3)C2=O)ccc(C(F)(F)C(F)(F)F)c1[S+](C)[O-] (stereo not drawn) [drawing 17]
Herbicidal action against VIOTR [4, 15]: 100% | Herbicidal action against PHBPU [5, 15]: 90%

Cc1nn(C)c(O)c1C(=O)c1ccc(C(F)(F)F)c([S+](C)[O-])c1C (stereo not drawn) [drawing 18]
Herbicidal action against VIOTR [4, 15]: 40% | Herbicidal action against PHBPU [5, 15]: 60%

Cc1c(C(=O)c2cnn(C)c2O)ccc(C(F)(F)F)c1[S+](C)[O-] (stereo not drawn) [drawing 24]
Herbicidal action against PHBPU [2, 14]: 60% | Herbicidal action against ALOMY [3, 14]: 60%

Cc1c(C(=O)C2C(=O)C3CCC(C3)C2=O)ccc(C(F)(F)C(F)(F)F)c1S(C)(=O)=O (stereo not drawn) [drawing 21]
Herbicidal action against VIOTR [4, 16]: 100% | Herbicidal action against SETVI [6]: 100%

CCn1ncc(C(=O)c2ccc(C(F)(F)F)c(S(C)(=O)=O)c2C)c1O [drawing 32]
Herbicidal action against MATIN ([7]; Comparison Table 10): 90% | Herbicidal action against PHBPU [2, 17]: 40% | Herbicidal action against ECHCG ([8]; Comparison Table 10): 90%

Cc1c(C(=O)C2C(=O)C3CCC(C3)C2=O)ccc(C(F)(F)C(F)(F)F)c1[S+](C)[O-] (stereo not drawn) [drawing 25]
Herbicidal action against PHBPU [2, 18]: 100% | Herbicidal action against ALOMY [3, 18]: 90%

Cc1c(C(=O)C2C(=O)C3CCC(C3)C2=O)ccc(C(F)(F)C(F)(F)F)c1S(C)(=O)=O (stereo not drawn) [drawing 29]
Herbicidal action against MATIN ([7]; Comparison Table 9): 100% | Herbicidal action against PHBPU [2, 19]: 90% | Herbicidal action against ECHCG ([8]; Comparison Table 9): 100%

Cc1nn(C)c(O)c1C(=O)c1ccc(C(F)(F)F)c([S+](C)[O-])c1C (stereo not drawn) [drawing 28]
Herbicidal action against AMARE [1]: 50% | Herbicidal action against PHBPU [2, 13]: 50% | Herbicidal action against ALOMY [3, 13]: 30%

Cc1c(C(=O)C2C(=O)C3CCC(C3)C2=O)ccc(C(F)(F)C(F)(F)F)c1S(C)(=O)=O (stereo not drawn) [drawing 31]
Herbicidal action against MATIN ([7]; Comparison Table 10): 100% | Herbicidal action against PHBPU [2, 17]: 90% | Herbicidal action against ECHCG ([8]; Comparison Table 10): 100%

Cc1c(C(=O)c2cnn(C)c2O)ccc(C(F)(F)F)c1S(C)(=O)=O [drawing 30]
Herbicidal action against MATIN ([7]; Comparison Table 9): 55% | Herbicidal action against PHBPU [2, 19]: 80% | Herbicidal action against ECHCG ([8]; Comparison Table 9): 95%

Cc1c(C(=O)C2C(=O)C3CCC(C3)C2=O)ccc(C(F)(F)C(F)(F)F)c1[S+](C)[O-] (stereo not drawn) [drawing 15]
Herbicidal action against VIOTR [4, 20]: 100% | Herbicidal action against PHBPU [5, 20]: 80%

CCn1ncc(C(=O)c2ccc(C(F)(F)F)c(S(C)(=O)=O)c2C)c1O [drawing 20]
Herbicidal action against AVEFA [9]: 40% | Herbicidal action against MATIN [10]: 90% | Herbicidal action against PHBPU [5, 21]: 50%

Cc1c(C(=O)C2C(=O)C3CCC(C3)C2=O)ccc(C(F)(F)C(F)(F)F)c1S(C)(=O)=O (stereo not drawn) [drawing 33]
Herbicidal action against VIOTR [11]: 100% | Herbicidal action against SETVI [12]: 100% | Herbicidal action against PHBPU [2, 22]: 90%

Cc1c(C(=O)C2C(=O)C3CCC(C3)C2=O)ccc(C(F)(F)C(F)(F)F)c1S(C)(=O)=O (stereo not drawn) [drawing 19]
Herbicidal action against AVEFA [9]: 80% | Herbicidal action against MATIN [10]: 100% | Herbicidal action against PHBPU [5, 21]: 90%

Cc1nn(C)c(O)c1C(=O)c1ccc(C(F)(F)F)c(S(C)(=O)=O)c1C
Herbicidal action against VIOTR [11]: 80% | Herbicidal action against SETVI [12]: 60% | Herbicidal action against PHBPU [2, 22]: 80%

Cc1c(C(=O)c2cnn(C)c2O)ccc(C(F)(F)F)c1[S+](C)[O-] (stereo not drawn) [drawing 14]
Herbicidal action against VIOTR [4, 23]: 90% | Herbicidal action against PHBPU [5, 23]: 50%

Cc1c(C(=O)c2cnn(C)c2O)ccc(C(F)(F)F)c1S(C)(=O)=O [drawing 22]
Herbicidal action against VIOTR [4, 16]: 50% | Herbicidal action against SETVI [6]: 60%

CCn1ncc(C(=O)c2ccc(C(F)(F)F)c([S+](C)[O-])c2C)c1O (stereo not drawn)
Herbicidal action against VIOTR [4, 20]: 50% | Herbicidal action against PHBPU [5, 20]: 0%

Cc1c(C(=O)C2C(=O)C3CCC(C3)C2=O)ccc(C(F)(F)C(F)(F)F)c1[S+](C)[O-] (stereo not drawn) [drawing 13]
Herbicidal action against VIOTR [4, 23]: 100% | Herbicidal action against PHBPU [5, 23]: 90%

Cc1c(C(=O)c2cnn(C)c2O)ccc(C(F)(F)F)c1[S+](C)[O-] (stereo not drawn) [drawing 26]
Herbicidal action against PHBPU [2, 18]: 80% | Herbicidal action against ALOMY [3, 18]: 60%
